Values after ≈ are worked out from the molar mass of the structure shown. Like-named read-outs stand apart in the source and are kept apart here.
Columns and labels:
Type in all cases: cell-based
[1] = system: Mucormycete group (Rhizopus microspores, Fusarium solani cx, Rhizopus arrhizus and Candida krusei QC); experiment: Susceptibility assay of bromelain and acetylcysteine alone or together (Example 1); settings: in isolation, R. microsporus, read-out: MIC required to inhibit Mucormycete growth
Method: Unless otherwise described, fungal cultures were grown on potato dextrose agar plates at 35° C. until mature (appearance of conidia) and used to prepare suspensions in sterile water. Suspensions were diluted in RPMI 1:60. These suspensions were then added in equal volume to solutions containing the candidate species described above and incubated at 35° C. for 24 hr. Plates were then analysed for fungal growth inhibition and MIC values determined. […] Initial tests were conducted on one strain of Rhizopus microsporus, one strain of Rhizopus arrhizus and one strain of Candida krusei QC, all sourced clinically.

Rhizopus microsporus = experiment: Chequerboard broth microdilution antifungal susceptibility testing (MIC)
Method: (§1) Unless otherwise described, fungal cultures were grown on potato dextrose agar plates at 35° C. until mature (appearance of conidia) and used to prepare suspensions in sterile water. […] These suspensions were then added in equal volume to solutions containing the candidate species described above and incubated at 35° C. for 24 hr. Plates were then analysed for fungal growth inhibition and MIC values determined. […] [MICA (combined)/MICA]+[MICB (combined)/MICB] MICA (combined) is the MIC of drug A when both drugs (i.e. drug A and drug B) are present and MICA is the MIC of drug A used in isolation. Similarly, MICB (combined) is the MIC of drug B when both drugs are present and MICB is the MIC of drug B used in isolation.

Rhizopus arrhizus = experiment: as above
Method: as §1

Candida tropicalis = experiment: Susceptibility assay of antifungals with BromAc (Example 4); settings: antifungal in combination with BromAc (5 mg/ml Acetylcysteine+12.5 μg/ml Bromelain) vs alone
Method: (§2) The in vitro antifungal properties of Bromelain, Acetylcysteine, BromAc, Amphotericin B, Isavuconazole, Fluconazole and Posaconazole were determined using a broth microdilution method in round bottom 96 well plates in accordance with standard procedures defined by the Clinical Laboratory Standards Institute (CLSI).
(§3) Unless otherwise described, fungal cultures were grown on potato dextrose agar plates at 35° C. until mature (appearance of conidia) and used to prepare suspensions in sterile water. Suspensions were diluted in RPMI 1:60. These suspensions were then added in equal volume to solutions containing the candidate species described above and incubated at 35° C. for 24 hr. Plates were then analysed for fungal growth inhibition and MIC values determined.
(§4) BromAc (5 mg/ml Acetylcysteine+12.5 μg/ml Bromelain) was used in combination with Amphotericin B, Isavuconazole, Posaconazole and Fluconazole. The MIC values of these four antifungal agents against the fungus described below were calculated and compared with their corresponding MIC values in the presence of BromAc, using the standard susceptibility assays described above.
(§5) The fungal strains set out in Table 2, all of which were sourced from a range of clinical isolates from Australian hospitals, were used in these experiments to gain a further understanding of the efficacy of BromAc in combination with Amphotericin B, Isavuconazole, Posaconazole and Fluconazole.

Scedosporium = experiment: as above; settings: antifungal in combination with BromAc (5 mg/ml Acetylcysteine+12.5 μg/ml Bromelain) vs alone
Method: as §2, §3, §4, §5

Lomentospora = experiment: as above; settings: antifungal in combination with BromAc (5 mg/ml Acetylcysteine+12.5 μg/ml Bromelain) vs alone
Method: as §2, §3, §4, §5

Candida auris = experiment: as above
Method: as §2, §3, §4, §5

Cunninghamella = experiment: as above; settings: antifungal in combination with BromAc (5 mg/ml Acetylcysteine+12.5 μg/ml Bromelain) vs alone
Method: as §2, §3, §4, §5

Candida glabrata = experiment: as above
Method: as §2, §3, §4, §5

Candida kruseii = experiment: as above; settings: antifungal in combination with BromAc (5 mg/ml Acetylcysteine+12.5 μg/ml Bromelain) vs alone
Method: as §2, §3, §4, §5

Fusarium = experiment: as above; settings: antifungal in combination with BromAc (5 mg/ml Acetylcysteine+12.5 μg/ml Bromelain) vs alone
Method: as §2, §3, §4, §5

Mucor circinelloides = experiment: as above
Method: as §2, §3, §4, §5

Licthemia = experiment: as above; settings: antifungal in combination with BromAc (5 mg/ml Acetylcysteine+12.5 μg/ml Bromelain) vs alone
Method: as §2, §3, §4, §5

Cryptococcus = experiment: as above
Method: as §2, §3, §4, §5

Aspergillus = experiment: as above; settings: antifungal in combination with BromAc (5 mg/ml Acetylcysteine+12.5 μg/ml Bromelain) vs alone
Method: as §2, §3, §4, §5

[2] = system: Aspergillus fumigatus (ATCC strain 13697); experiment: Broth dilution susceptibility test, MIC and percent growth (Example 7)
Method: A. Preparation of inoculum: • 1. Candida glabrata was grown on Sabouraud dextrose agar (SDA) at 37° C. for 24-48 hrs. • 2. Following this, 5 colonies of 1 mm diameter were picked and suspended in 5 mL sterile saline (0.9% saline) and vortexed for 15 seconds. • 3. Working suspension is prepared as a 1:100 dilution from stock suspension with RPMI 1640 culture medium. • 4. The cell density is adjusted with a spectrophotometer to the transmittance produced by a 0.5 McFarland standard (0.08 to 0.1) OD at 625 nm wavelength.
• 1. For Bromelain, a stock concentration of 1 mg/ml Bromelain solution was prepared in RPMI media and diluted to test concentrations of 62.4, 31.2, 15.6 and 7.8 μg/ml in RPMI 1640 media. • 2. Acetylcysteine stock concentration is 200 mg/ml, diluted to 40, 20, 10, and 5 mg/ml concentrations in RPMI 1640 medium. • 3. These concentrations are prepared at 2× of the required concentrations in the final assay plate.
Antifungal stock concentrations are as follows— • 1. Amphotericin B, Stock concentration: 250 μg/ml in water. • 2. Posaconazole, Original concentration: 300 mg in 16.7 ml, Working stock concentration: 1 mg/ml in DMSO. • 3. Fluconazole, Original concentration: 100 mg in 50 ml, Working stock concentration: 1 mg/ml in DMSO. • 4. The final concentration was prepared in RPMI 1640 media and concentrations range was 0.01-0.5 μg/mL for amphotericin B, 0.01-2 μg/mL for posaconazole and 0.01-64 μg/mL for fluconazole. • 5. These concentrations were prepared at 2× of the required concentrations in the final assay plate.
• 1. Wells of the 96-well plates were inoculated with appropriate concentrations and volumes of drugs. • 2. Sterility control and growth controls are included in each plate. • 3. Each 96-well plate (except the control wells) contains 100 μL of double strength (twice the final antifungal drug) concentrations. • 4. 100 μL of the fungal suspension is added to 96-well plates (except the sterility control wells). • 5. The growth control wells contained 100 μL of sterile drug-free medium and 100 μL of inoculum suspension, while the sterility control wells contained 200 μl of sterile drug-free medium. • 6. Plates are then incubated at 37° C. and read at 625,430, and 530 nm wavelengths. • 7. Data from 24 hours and absorbance at 625 nm were used for analysis.
These experiments were conducted to determine the efficacy of BromAc alone and in combination with existing antifungal drugs against Aspergillus fumigatus (ATCC strain 13697).
The method used in these experiments is essentially the same as that described above in Example 5. In these experiments, however, echinocandins such as […] Caspofungin are used in place of the azole antifungals described in earlier examples.

[3] = antifungal in combination with BromAc (5 mg/ml Acetylcysteine+12.5 μg/ml Bromelain) vs alone

CC(=O)N[C@@H](CS)C(=O)O [Acetylcysteine, N-acetylcysteine]
MIC [1]: 10 µg/mL (≈ 61.3 µM)

C[C@@H](c1nc(-c2ccc(C#N)cc2)cs1)[C@](O)(Cn1cncn1)c1cc(F)ccc1F [Isavuconazole]
isolates with more than 10× increase (Rhizopus microsporus; Rhizopus microspores, antifungal with BromAc): 9 of 10 | MIC (Rhizopus microsporus; Rhizopus microsporus, eight R. microsporus strains, read-out: MIC, average over the strains): 0.9 µg/mL (≈ 2.06 µM) | MIC (Rhizopus microsporus; Rhizopus microsporus, isolate R. microsporus 1, BromAc at constant concentration where combined, read-out: MIC): 0.2 µg/mL | MIC (Rhizopus microsporus; Rhizopus microsporus, isolate R. microsporus 2, BromAc at constant concentration where combined, read-out: MIC): 0.5 µg/mL | MIC (Rhizopus microsporus; Rhizopus microsporus, isolate R. microsporus 3, BromAc at constant concentration where combined, read-out: MIC): 0.5 µg/mL | MIC (Rhizopus microsporus; Rhizopus microsporus, isolate R. microsporus 4, BromAc at constant concentration where combined, read-out: MIC): 1 µg/mL | MIC (Rhizopus microsporus; Rhizopus microsporus, isolate R. microsporus 5, BromAc at constant concentration where combined, read-out: MIC): 0.5 µg/mL | MIC (Rhizopus microsporus; Rhizopus microsporus, isolate R. microsporus 6, BromAc at constant concentration where combined, read-out: MIC): 0.5 µg/mL | MIC (Rhizopus microsporus; Rhizopus microsporus, isolate R. microsporus 7, BromAc at constant concentration where combined, read-out: MIC): 0.5 µg/mL | Observed inhibitory effect (Rhizopus microsporus; Rhizopus microsporus, antifungal in combination with BromAc (5 mg/ml Acetylcysteine+12.5 μg/ml Bromelain) vs alone): Strong (Strong = 5-10x (or greater) inhibitory effect) | MICs, range over the strains (Rhizopus microsporus; eight R. microsporus strains): 0.5 to 1 µg/mL | isolates with 10× increase (Rhizopus arrhizus; Rhizopus Arrhizus, antifungal with BromAc): 6 of 8 | MIC (Rhizopus arrhizus; Rhizopus arrhizus, eight R. arrhizus strains, read-out: MIC, average over the strains): 0.8 µg/mL (≈ 1.83 µM) | MIC (Rhizopus arrhizus; Rhizopus arrhizus, isolate R. archizus 1, BromAc at constant concentration where combined, read-out: MIC): 1 µg/mL | MIC (Rhizopus arrhizus; Rhizopus arrhizus, isolate R. archizus 2, BromAc at constant concentration where combined, read-out: MIC): 1 µg/mL | MIC (Rhizopus arrhizus; Rhizopus arrhizus, isolate R. archizus 3, BromAc at constant concentration where combined, read-out: MIC): 1 µg/mL | MIC (Rhizopus arrhizus; Rhizopus arrhizus, isolate R. archizus 8, BromAc at constant concentration where combined, read-out: MIC): 1 µg/mL | MIC (Rhizopus arrhizus; Rhizopus arrhizus, isolate R. arrhizus 4, BromAc at constant concentration where combined, read-out: MIC): 1 µg/mL | MIC (Rhizopus arrhizus; Rhizopus arrhizus, isolate R. arrhizus 5, BromAc at constant concentration where combined, read-out: MIC): 0.5 µg/mL | MIC (Rhizopus arrhizus; Rhizopus arrhizus, isolate R. arrhizus 6, BromAc at constant concentration where combined, read-out: MIC): 1 µg/mL | MIC (Rhizopus arrhizus; Rhizopus arrhizus, isolate R. arrhizus 7, BromAc at constant concentration where combined, read-out: MIC): 0.5 µg/mL | Observed inhibitory effect (Rhizopus arrhizus; Rhizopus arrhizus, antifungal in combination with BromAc (5 mg/ml Acetylcysteine+12.5 μg/ml Bromelain) vs alone): Strong (Strong = 5-10x (or greater) inhibitory effect) | MICs, range over the strains (Rhizopus arrhizus; eight R. arrhizus strains): 0.5 to 2 µg/mL | Observed inhibitory effect (Candida tropicalis): Strong (Strong = 5-10x (or greater) inhibitory effect) | Observed inhibitory effect (Scedosporium): No effect | Observed inhibitory effect (Lomentospora): No effect | isolates with more than 10× increase (Candida auris; Candida auris, antifungal with BromAc): 4 of 5 | Observed inhibitory effect (Candida auris; Candida aurus, antifungal in combination with BromAc (5 mg/ml Acetylcysteine+12.5 μg/ml Bromelain) vs alone): Strong (Strong = 5-10x (or greater) inhibitory effect) | Observed inhibitory effect (Cunninghamella): Possible | Observed inhibitory effect (Candida glabrata; [3]): Strong (Strong = 5-10x (or greater) inhibitory effect) | isolates with more than a 10× increase in sensitivity (Candida glabrata; antifungal with BromAc): 5 of 5 | Observed inhibitory effect (Candida kruseii): Strong (Strong = 5-10x (or greater) inhibitory effect) | Observed inhibitory effect (Fusarium): No effect | Observed inhibitory effect (Mucor circinelloides; [3]): Strong (Strong = 5-10x (or greater) inhibitory effect) | isolates with increased sensitivity (Mucor circinelloides; antifungal with BromAc): 2 of 2 | Observed inhibitory effect (Licthemia): Possible | Observed inhibitory effect (Cryptococcus; [3]): Strong (Strong = 5-10x (or greater) inhibitory effect) | isolates with more than 10× increase (Cryptococcus; antifungal with BromAc): 5 of 5 | Observed inhibitory effect (Aspergillus): Moderate (Moderate = 1-5x inhibitory effect)

C[C@@H](c1ncncc1F)[C@](O)(Cn1cncn1)c1ccc(F)cc1F [Voriconazole]
MIC ([2]; Aspergillus fumigatus, ATCC13697, FIGS. 13a, 14a, read-out: MIC): 2 µg/mL | effect at lower concentrations (in words) ([2]; Voriconazole 1 μg/ml and 0.5 μg/ml, Caspofungin 0.25 μg/ml and 0.125 μg/ml): almost no inhibitory effect

Reference: patent US20260207720A1, “COMPOSITIONS AND METHODS FOR TREATING FUNGAL INFECTIONS” (MUCPharm Pty Ltd, priority 2022, published 2026)
